“Also recorded” adds a separate entry of the source. Like-named read-outs stand apart in the source and are kept apart here.
Columns and labels:
[1] = system: acetyl-tubulin (AcTub) in HEK/QBI 293 cells; test: Microtubule stabilization assay: acetyl-tubulin (AcTub) ELISA after compound treatment; format: cell-based; settings: for AcTub elevation compared with epoD: at 100 nM (FIG. 1); for change in acetyl-tubulin (AcTub), in words: relative to vehicle-treated cells (FIG. 1, Tables 5 and 6)
Text: (§1) The MT-stabilizing properties of triazolopyrimidines was investigated in a cell-free MT-polymerization assay, as well in a cell-based assay (HEK/QBI 293 cells) that measures changes in acetyl-tubulin (AcTub), a biomarker of stable MTs. (Laferriere, N.; MacRae, T.; Brown, D. Tubulin synthesis and assembly in differentiating neurons. Biochemistry and Cell Biology 1997, 75, 103-117; Black, M.; Baas, P.; Humphries, S. Dynamics of alpha-tubulin deacetylation in intact neurons. J Neurosci 1989, 9, 358).
as §1, with “properties of additional triazolopyrimidines, phenylpyrimidines, and pyridazines was investigated” for “properties of triazolopyrimidines was investigated”, “well in the aforementioned cell-based assay” for “well in a cell-based assay”, “of stable MTs (Laferriere, N.;” for “of stable MTs. (Laferriere, N.;”
The HEK293 cell subclone, QBI293, was maintained in DMEM supplemented with 10% fetal calf or bovine serum, 1% penicillin/streptomycin antibiotic solution and 1% glutamine at 37° C. in 5% CO2. Cells were plated into 6-well plates at a density of 800,000 cells/well. […] Test compounds were added at multiple concentrations to the test wells and incubated for 4 h. Subsequently, the media was removed and the cells were washed with 1 ml of ice-cold phosphate-buffered saline (PBS). After removal of PBS, 0.2 ml of ice-cold RIPA (0.5% sodium deoxycholate, 0.1% SDS, 1% NP-40, 5 mM EDTA, pH 8.0) containing protease inhibitor mix (1 μg/ml each of pepstatin, leupeptin, TLCK, TPCK and trypsin inhibitor), 1 mM PMSF and 1 μM trichostatin A was added to the wells. The wells were then scraped using a cell scraper and pipetted into 1.5 ml microfuge tubes. The tubes were sonicated with a handheld sonicator at 20× on a power setting of 2, followed by centrifugation for 30 min at 15,000 rpm at 4° C. Supernatants were removed and quantified for protein concentration and the acetyl-tubulin levels were determined using an ELISA as described.
384-well plates were coated with 12G10α-tubulin antibody (Developmental Studies Hybridoma Bank at the University of Iowa; 10 μg/ml) in 30 μl of cold 0.1 M bicarbonate buffer. After overnight incubation at 4° C., the plates were washed with cold PBS, followed by the addition of Block-Ace solution and overnight incubation at 4° C. The blocking solution was removed and 10 μl of EC buffer (0.02 M sodium phosphate, pH 7.0, 2 mM EDTA, 0.4 M NaCl, 0.2% bovine serum albumin, 0.05% CHAPS, 0.4% BlockAce and 0.05% NaN3) was added to each well. Cell culture supernatants were diluted in EC buffer to final protein concentrations of 9, 3, 1.5 and 0.5 μg/30 μl, and 30 μl of each were added to wells in duplicate and plates were subsequently sealed. After overnight incubation at 4° C., the plates were aspirated and washed with cold PBS containing 0.05% Tween-20 and 0.05% thimerisol (PBS-Tween buffer), followed by addition of 30 μl/well of HRP-conjugated acetyl-tubulin antibody (6-11B-1 antibody from Sigma-Aldrich) that was prepared with a Peroxidase Labeling Kit following the manufacturer's instructions that was subsequently diluted 1:1000 in C buffer (0.02 M sodium phosphate, pH 7.0, 2 mM EDTA, 0.4 M NaCl, 1% bovine serum albumin and 0.05% thimerisol). The plates were incubated at room temperature for 4 h on a platform rocker, followed by washing with cold PBS-Tween buffer. Peroxidase substrate solution (30 μl) was added and the reaction was quenched after 5-10 min by addition of 30 μl of 10% phosphoric acid. Plates were read on a SpectraMax M5 plate reader at 450 nm. Because an acetyl-tubulin standard is not available, all data were normalized to a control treatment condition (e.g., no compound addition).

[2] = system: detyrosinated α-tubulin (GluTub); test: Detyrosinated α-tubulin (GluTub) in the cell-based studies; settings: data not shown
[3] = Determination of plasma and brain compound concentrations; format: in vivo; settings: mouse, 1 hour after a 5 mg/kg intraperitoneal injection
Method: For utility in neurodegenerative diseases, MT-stabilizing compounds must cross the blood-brain barrier (BBB) and enter the brain. As summarized in Table 7, a number of examples show concentrations in the brain that exceed 0.5 μM an hour after administration of a 5 mg/kg dose, with brain-to-plasma concentration ratios of ˜0.3 or higher.
Mouse brains were homogenized in 10 mM ammonium acetate, pH 5.7 (1:2; w/v) using a handheld sonic homogenizer. Mouse plasma was obtained from blood that was collected into a 1.5 ml tube containing 0.5M EDTA solution and which was centrifuged for 10 minutes at 4500 g at 4° C. Aliquots (50 μl) of brain homogenates (50% w/v in 100 mM NH4OAC pH 5.75) or plasma were mixed with 0.2 ml of acetonitrile, centrifuged at 15,000 g, and the resulting supernatant was used for subsequent LC-MS/MS analysis. The LC-MS/MS system was comprised of an Aquity UPLC and a TQ MS that was controlled using MassLynx software (Waters Corporation, Milford, Mass., USA). Compounds were detected using multiple reaction monitoring (MRM) of their specific collision-induced ion transitions. Samples were separated on an Aquity BEH C18 column (1.7 μm, 2.1×50 mm) at 35° C. Operation was in positive electrospray ionization mode, with mobile phase A of 0.1% (v/v) formic acid, and B of acetonitrile with 0.1% (v/v) formic acid. Injections of 5 μl were separated at a flow rate of 0.6 mL/min using a gradient from 5% to 95% B over two minutes, followed by wash and re-equilibration steps. The MS was operated with a desolvation temperature of 450° C. and a source temperature of 150° C. Desolvation and source nitrogen gas flows were 900 L/hr and 50 L/hr, respectively. Source and MS/MS voltages were optimized for each compound using the MassLynx auto tune utility. To account for possible matrix effects on analytes, standard curves were generated for each compound from brain homogenate and plasma samples that had compound added at 24, 240, 2400 and 24000 nM. The standard curve samples were extracted and analyzed in an identical fashion as the corresponding tissue-derived samples, and peak areas were plotted against concentration and a linear regression curve was used to obtain estimated concentrations of the tissue-derived samples using the peak areas. In all cases, the tissue-derived sample peak areas fell within the linear portion of standard curves that were prepared and analyzed concurrently with the samples.

[4] = system: brain α-tubulin that is acetylated (AcTub); test: Determination of brain acetyl-tubulin levels; format: in vivo, CD1 mice; settings: wild-type mice, once-daily 1 mg/kg dose, 3 days (FIG. 14)
[5] = system: AcTub-positive MTs in HEK/QBI293 cells; test: Acetyl tubulin immunofluorescence; format: cell-based; settings: 4 h incubation
Method: The HEK293 cell subclone, QBI293, was plated onto poly-D-lysine-coated glass coverslips at 50,000 cells/ml in DMEM supplemented with 10% fetal calf or bovine serum, 1% penicillin/streptomycin antibiotic solution and 1% glutamine and maintained overnight at 37° C. in 5% CO2. The next day, cells were left untreated or were treated with 100 nM epothilone D, 100 nM CNDR-51533 or 1 μM colchicine. After an additional 4 h of incubation at 37° C. in 5% CO2, cells were washed twice with PBS, and then fixed for 15 min in PBS containing 4% paraformaldehyde. The cells were again washed twice with PBS, and permeabilized with 0.1% Triton X-100 in PBS for 15 min. Following the Triton X-100 treatment, the cells were washed twice in PBS, and treated with PBS containing 3% bovine serum albumin for 1 h. Acetyl-tubulin antibody was subsequently added (1:1000 dilution) and incubated for 1 h. Cells were then washed cells 3×5 min with 0.1% Triton X-100 in PBS, and secondary antibody (goat-anti-mouse labeled with Alexa fluor 488 at 1:1000) was added and allowed to incubate for 1 h. […] Finally, the cells were washed once with PBS, followed by H2O, and the cover slips were mounted onto slides with Fluoromount G. Images were acquired on a microscope equipped for fluorescence detection. […]

[6] = mouse, in vivo; cited from earlier work
[7] = brain, ip, read-out: Brain nM (SD)
[8] = plasma, ip, read-out: Plasma nM (SD)

concentration at 1 h [3, 7]	Brain/Plasma [3]	concentration at 1 h [3, 8]	Molecule	change in acetyl-tubulin (AcTub), in words [1]	change in detyrosinated α-tubulin (GluTub) [2]	other results
–	–	–	CNCCCOc1cc(F)c(-c2c(Cl)nc3ncnn3c2NCC(F)(F)F)c(F)c1 [CNDR-51534, 5-Chloro-6-(2,6-difluoro-4-(3-(methylamino)propoxy)phenyl)-N-(2,2,2-trifluoroethyl)-[1,2,4]triazolo[1,5-a]pyrimidin-7-amine]	dose-dependent elevation in AcTub	significant increases of detyrosinated α-tubulin (GluTub)	AcTub elevation compared with epoD [1]: significantly more effective than epoD
1480 nM	0.34	4320 nM	C[C@H](Nc1nc(-c2ccccn2)nc(Cl)c1-c1c(F)cc(F)cc1F)C(F)(F)F [CNDR-51552, (S)-6-chloro-2-(pyridin-2-yl)-5-(2,4,6-trifluorophenyl)-N-(1,1,1-trifluoropropan-2-yl)pyrimidin-4-amine]	–	–	–
2870 nM	0.58	4950 nM	C[C@H](Nc1nc(-c2cnccn2)nc(Cl)c1-c1c(F)cc(F)cc1F)C(F)(F)F [CNDR-51549, (S)-6-chloro-2-(pyrazin-2-yl)-5-(2,4,6-trifluorophenyl)-N-(1,1,1-trifluoropropan-2-yl)pyrimidin-4-amine]	–	–	AcTub levels in the brain [4]: increase of AcTub levels in the brains; also recorded: increase in the fraction of brain α-tubulin that is acetylated
–	–	–	CNCCCOc1cc(F)c(-c2c(Cl)nc3ncnn3c2N[C@@H](C)C(F)(F)F)c(F)c1 [CNDR-51533, (S)-5-Chloro-6-(2,6-difluoro-4-(3-(methylamino)propoxy)phenyl)-N-(1,1,1-trifluoropropan-2-yl)-[1,2,4]triazolo[1,5-a]pyrimidin-7-amine, reference compound]	dose-dependent elevation in AcTub	significant increases of detyrosinated α-tubulin (GluTub)	AcTub elevation compared with epoD [1]: significantly more effective than epoD; AcTub immunofluorescence, MT structure ([5]; 100 nM, relative to control cells): large increase in highly organized, AcTub-positive MTs; crossing of the blood-brain barrier (BBB), previously described agents [6]: do not cross the BBB
–	–	–	(S)-6-Chloro-5-(2,6-difluoro-4-(3-(methylamino)propoxy)phenyl)-2-(pyridin-2-yl)-N-(1,1,1-trifluoropropan-2-yl)pyrimidin-4-amine [CNDR-51562]	–	–	dose of maximal effect (AcTub increase) ([1]; 4 h treatment): 0.1 µM; Fold-Increase in AcTub ([1]; 4 h treatment, at the dose of maximal effect, relative to control): 6.2 fold
–	–	–	Fc1cc(F)c(-c2c(Cl)nc3ncnn3c2NCC(F)(F)F)c(F)c1 [CNDR-51539, 5-Chloro-N-(2,2,2-trifluoroethyl)-6-(2,4,6-trifluorophenyl)-[1,2,4]triazolo[1,5-a]pyrimidin-7-amine]	dose-dependent elevation in AcTub	significant increases of detyrosinated α-tubulin (GluTub)	–
701 nM	–	2120 nM	C[C@H](Nc1nc(-c2ccccn2)nc(Cl)c1-c1c(F)cc(OCCCN(C)C)cc1F)C(F)(F)F [CNDR-51561, (S)-6-Chloro-5-(4-(3-(dimethylamino)propoxy)-2,6-difluorophenyl)-2-(pyridin-2-yl)-N-(1,1,1-trifluoropropan-2-yl)pyrimidin-4-amine]	–	–	Kp at 1 h ([3]; brain/plasma, ip): 0.33
–	–	–	COc1cc2c(c(OC)c1OC)-c1ccc(OC)c(=O)cc1[C@@H](NC(C)=O)CC2 [colchicine]	–	–	AcTub immunofluorescence staining ([5]; 1 μM, data not shown): significant loss of AcTub staining

Molecule	concentration at 1 h [3, 7]	Brain/Plasma [3]	concentration at 1 h [3, 8]	change in acetyl-tubulin (AcTub), in words [1]	change in detyrosinated α-tubulin (GluTub) [2]	other results
C[C@H](Nc1c(-c2c(F)cc(OCCCN(C)C)cc2F)c(Cl)nc2ncnn12)C(F)(F)F [CNDR-51555, (S)-5-Chloro-6-(4-(3-(dimethylamino)propoxy)-2,6-difluorophenyl)-N-(1,1,1-trifluoropropan-2-yl)-[1,2,4]triazolo[1,5-a]pyrimidin-7-amine]	1350 nM	0.27	4930 nM	–	–	–
